Patent US12115161B2, “Prophylactic and/or therapeutic agent for inflammatory diseases which contains pyrrolopyrimidine compound as active ingredient” (KEIO UNIVERSITY, priority 2018, dated 2024)

Legend:
[1] = tested on: NZB/WF1 mice; test: Anti-dsDNA antibody titer in blood of NZB/WF1 mice (Example 7); type: in vivo
Description: NZB/WF1 mice (purchased from Japan SLC, Inc.) were used as disease model (may also be referred to as systemic lupus erythematosus (SLE) model) mice producing anti-dsDNA antibodies with age and spontaneously developing glomerulonephritis. Except for the following exceptions, present Example was performed by the same materials and method as Example 6 above.
Experiments were performed as follows: • Group 1: administered a physiological saline solution only (saline); • Group 2: administered 0.2 mg/kg of Compound A; • Group 3: administered 1 mg/kg of Compound A.
NZB/WF1 mice (female) of 20 weeks old were classified into the above three groups (five individuals per group) and predetermined administration was initiated (0 w) on the individuals in each group.
The administration was performed five times a week for 20 weeks by intravenous injection.

[2] = tested on: peripheral blood monocytes and B cells from Sjögren syndrome patients; test: IgG production in coculture of BAFF-stimulated peripheral blood monocytes and B cells (Example 4); type: cell-based, human
Description: Monocytes were isolated from Sjögren syndrome patient peripheral blood using CD14 microbeads, and B cells were isolated from the peripheral blood using CD19 microbeads. Using Transwell® culture plates, 2×10^5 monocytes per well were seeded in the upper plate and 1×10^5 B cells in the lower plate to be cultured in the presence of 2 μg/mL recombinant human BAFF (same as Example 2) and Compound A (1 μM and 10 μM) using a 10% FBS/RPMI 1640 culture medium in a 5% CO2 environment at 37° C. for four days (coculture of the peripheral blood monocytes and the B cells via a membrane). Four days later, the supernatant was removed and the culture supernatant was collected to determine the IgG content in the culture supernatant by ELISA. As controls, experiments in the case of not adding Compound A and the case of adding neither Compound A nor BAFF were also performed. Moreover, for comparison with the effects of Compound A, experiments using BIK-13 instead of Compound A were also performed.

[3] = tested on: NZB/WF1 mice; test: Urine protein in NZB/WF1 mice (Example 8); type: in vivo
Description: Present Example was performed simultaneously with Example 7 using NZB/WF1 mice. Except for the following exceptions, present Example was performed by the same materials and method as Example 7 above.
The urine was collected over time (0 w, 4 w, 7 w, 12 w, 16 w, and 18 w) to evaluate the protein content […] in the urine using urine protein test strips. It is known that SLE patients are prone to develop lupus nephritis and a higher concentration of protein is contained in the urine of incident patients than the urine of normal healthy individuals.
The level of the protein content in the mouse urine was numerically expressed using Albustix (Ames urine protein test strips, produced by Siemens Healthcare K.K.) as urine protein test strips based on the following criteria. • negative: 0 • ±: 0.5 • +: 1 • 2+: 2 • 3+: 3

[4] = tested on: MRL/lpr mice; test: Tissue lesion (lymphocytic infiltration, HE staining) in MRL/lpr mice (Example 9); type: in vivo; settings: 0.04, 0.2, 1 mg/kg for 16 weeks
Description: Present Example was performed simultaneously with Example 6 using MRL/lpr mice. Except for the following exceptions, present Example was performed by the same materials and method as Example 6 above.
After administration in the 16th week, 25-week-old mice were dissected and tissues (lacrimal glands, submandibular glands, and kidneys) were removed. After the removed tissues were rapidly frozen and embedded using O.C.T. compound (Sakura Finetek Japan Co., Ltd.), the frozen tissues were thin sectioned with a cryostat (LEICA CM 1920) and applied on glass slides. After the sections on the glass slides were dried, the tissues were stained by hematoxylin-eosin staining to be observed with a microscope. The hematoxylin-eosin staining was performed in the following procedure: • 1) fixation and washing with an ethanol-formalin-acetic acid fixative; • 2) adding New Hematoxylin solution Type G (Muto Pure Chemicals Co., Ltd.), followed by washing; • 3) adding New Eosin solution Type A (Muto Pure Chemicals Co., Ltd.); • 4) adding 80% ethanol; • 5) adding xylene; and • 6) mounted with Marinol (Muto Pure Chemicals Co., Ltd.) for observation.

[5] = tested on: human monocytic cell line THP-1; test: IL-6 production inhibitory effect of BAFF in IFNγ-precultured THP-1 cells (Example 2); type: cell-based
Description: In 24-well plates (manufactured by Corning Inc.) in a RPMI-1640 culture medium (produced by ATCC) containing 10% fetal bovine serum (produced by JRH Biosciences), 5×10^5 cells of human monocytic leukemia cell line THP-1 (obtained from a bioresource bank, Japanese Collection of Research Bioresource) were seeded per well. IFNγ (interferon γ, produced by BD Pharmingen) was added to a final concentration of 200 ng/mL and cultured in a 5% CO2 environment at 37° C. After four days of culture, the culture broth in each well was removed and the cells were washed twice with the culture medium, followed by addition of the culture medium containing a final concentration of 2 μg/mL of recombinant human soluble BAFF (produced by Chemicon), and respective test compounds were added to a final concentration of 20 μM or 2 μM to continue the culture in the same conditions. After three days of culture, the culture supernatant was collected to determine the IL-6 content in the supernatant by ELISA. For ELISA, mouse anti-human IL-6 antibody (produced by BD Pharmingen), biotin-labeled anti-human IL-6 antibody (produced by BD Pharmingen), and HRP-labeled streptavidin (produced by BD Pharmingen) were used. The test compound groups were used by purchasing from Asinex. In the test system, Compound 27 (BIK-13) in PTL 1 was used as a positive control (compound with inhibitory action on IL-6 production by monocytic cells). BIK-13 was the same as the compound of ADM 12880656 by Asinex Japan Inc.
In the presence of 200 ng/mL recombinant human IFNγ (same as Example 1) (entire culture scale of 24-well culture plates at 2 mL/well), 5×10^5 cells of human monocytic cell line THP-1 (same as Example 1) were cultured using a 10% FBS/RPMI 1640 culture medium in a 5% CO2 environment at 37° C. for four days (96 hours). Four days later, an operation of removing the supernatant, adding a new medium, leaving it still in an incubator, and removing the supernatant was repeated twice. After removing the supernatant, recombinant human BAFF (2 μg/mL) was dissolved together with Compound A (ADM 12880492, Asinex Japan Inc.) or Compound B (ADM 12880696, Asinex Japan Inc.) in a medium and added to the culture wells to be cultured for three days. Three days later, the culture supernatant was collected to determine the IL-6 content in the culture supernatant by IL-6 specific ELISA. As a control, instead of Compound A or Compound B, BIK-13 was used.

SMILES: Cc1c(C)n(Cc2ccccc2)c2ncnc(OC3CCN(CC(=O)NCC4CC4)CC3)c12 [Compound A, 2-[4-{(7-benzyl-5,6-dimethyl-7H-pyrrolo[2,3-d]pyrimidin-4-yl)oxy}piperidin-1-yl]-N(cyclopropylmethyl)acetamide]
- anti-dsDNA antibody titer inhibitory effect compared with saline ([1]; 1 mg/kg, 12th and 16th weeks): significant (respectively, p<0.05) anti-dsDNA antibody titer inhibitory effects
- anti-dsDNA antibody titers in the blood compared with saline ([1]; 0.2 and 1 mg/kg, intravenous injection five times a week, 12 w or later): tendency of decrease
- IgG antibody production inhibitory effect compared with the control (B+mono+BAFF) ([2]; 1 μM and 10 μM with 2 μg/mL human BAFF, 4 days): significant (p<0.01 or p<0.001) IgG antibody production inhibitory effects
- cancellation of the IgG antibody production enhancement by BAFF ([2]; 10 μM, compared with adding neither compound nor BAFF): completely cancelled and further the IgG antibody production was inhibited below the basal level
- inhibitory effect on IgG antibody production, times stronger than BIK-13 ([2]; coculture system of Example 4): approximately 10 times
- protein content in the urine compared with saline ([3]; 0.2 and 1 mg/kg, 12 w or later, urine protein test strips): tendency of decrease
- inhibitory effect on the protein content in the urine compared with saline ([3]; 12th week (1 mg/kg) and 18th week (0.2 mg/kg and 1 mg/kg)): significant (respectively, p<0.05) inhibitory effects
- lymphocytic infiltration areas in kidney tissues compared with saline [4]: reduced
- lymphocytic infiltration areas in lacrimal gland tissues compared with saline [4]: clearly reduced
- lymphocytic infiltration areas in submandibular gland tissues compared with saline [4]: reduced
- IL-6 production inhibitory effect compared with the control ([5]; 0.04 μM, 0.2 μM and 1 μM together with 2 μg/mL human BAFF, 3 days, ELISA): significant (p<0.001) IL-6 production inhibitory effects
- relative amount of IL-6 production ([5]; 0.04 μM, control (BAFF only) = 100%): 25±1.42%
- IL-6 production inhibitory effect, times stronger than BIK-13 ([5]; THP-1 system of Example 2): at least 750 times
